These results are taken from patent publication US8563513B2, “Parathyroid hormone peptides and parathyroid hormone-related protein peptides and methods of use” (Van Andel Research Institute, priority 2009, dated 2013).

Assay [1] addresses T1, G protein-uncoupled receptor (R0) conformation of PTH1R (Homo sapiens, UniProt Q03431).
T1 sequence (Q03431 27-593): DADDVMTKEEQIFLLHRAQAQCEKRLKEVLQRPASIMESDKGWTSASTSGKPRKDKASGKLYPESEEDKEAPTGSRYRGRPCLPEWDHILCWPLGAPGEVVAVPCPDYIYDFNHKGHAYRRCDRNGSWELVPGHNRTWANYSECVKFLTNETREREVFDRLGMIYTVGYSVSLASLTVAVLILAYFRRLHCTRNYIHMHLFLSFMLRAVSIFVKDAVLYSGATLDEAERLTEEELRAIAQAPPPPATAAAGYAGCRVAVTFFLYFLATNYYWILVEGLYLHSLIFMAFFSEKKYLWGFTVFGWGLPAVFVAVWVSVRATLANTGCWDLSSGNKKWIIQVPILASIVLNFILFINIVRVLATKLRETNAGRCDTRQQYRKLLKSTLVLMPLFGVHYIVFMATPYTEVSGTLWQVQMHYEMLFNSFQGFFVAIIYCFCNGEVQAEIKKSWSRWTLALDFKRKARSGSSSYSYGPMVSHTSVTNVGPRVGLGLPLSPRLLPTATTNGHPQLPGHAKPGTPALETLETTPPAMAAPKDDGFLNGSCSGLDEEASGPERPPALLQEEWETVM
As to the kind of experiment: Receptor binding assay in cell membranes, R0 conformation. Particulars: for RO/RG: ratio of R0 and RG IC50; for R0 affinity compared to wild-type: in words. As for the experimental part:
(§1) Receptor binding assay. Peptide binding to the G protein-uncoupled receptor (R0) and G protein-coupled receptor (RG) conformations in cell membranes was assessed as previously described (26).
(§2) Experimentally, the R0 conformation is studied by including GTPγS in the reactions to uncouple receptor and G protein and the RG conformation is studied by co-expressing the receptor with a dominant negative form of Gαs (23, 25).

Assay [2] concerns the target T2, G protein-coupled receptor (RG) conformation of PTH1R (Homo sapiens, UniProt Q03431).
T2 construct: expressed in transfected cells
T2 sequence (Q03431 27-593): T1 sequence (Q03431 27-593)
As to the kind of experiment: Receptor binding assay in cell membranes, RG conformation. As to conditions: for IC50: n = 3, receptor co-expressed with dominant negative Gαs. As for the experimental part:
as §1, §2

Assay [3] deals with T3, MBP-PTH1R ECD-H6 fusion protein (Homo sapiens, UniProt Q03431).
T3 construct: fusion protein containing residues 29-187 of PTH1R fused to the C-terminus of MBP; made in house; host or cells: E. coli
T3 sequence (Q03431 29-187): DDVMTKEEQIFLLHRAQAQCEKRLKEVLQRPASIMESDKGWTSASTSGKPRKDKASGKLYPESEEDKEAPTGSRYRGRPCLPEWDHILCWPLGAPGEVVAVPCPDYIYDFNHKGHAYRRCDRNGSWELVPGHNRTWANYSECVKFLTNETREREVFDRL
As to the kind of experiment: AlphaScreen ECD-peptide competition binding assay. As to conditions: for ECD-binding (ability to compete biotin-PTH / MBP-PTH1R-ECD interaction): single point, peptide 20 μM, in words; for IC50: biotinylated PTH(7-34)NH2 23 nM, MBP-PTH1R ECD 23 nM, read-out: IC50, competition of the AlphaScreen interaction. As for the experimental part:
ECD-peptide binding assays. The binding of peptides to the MBP-PTH1R ECD-H6 fusion protein was assessed using an AlphaScreen assay (Perkin-Elmer). […] The pre-coupling reactions were mixed, un-labeled competitor peptides were added as indicated, and the reactions were incubated 4 to 5 hrs to reach equilibrium. Photon counts were recorded in 384-well optiplates using an Envision 2104 plate reader (Perkin-Elmer). Prism 5.0 software (GraphPad Software, San Diego) was used to fit the data to a fixed-slope dose-response inhibition equation for determination of IC50 values. Real-time analysis of the binding of peptides to the isolated PTH1R ECD using the Octet Red system (ForteBio) was performed as described in below.
On the technique in general: Bead proximity is the source of the signal in Alpha formats.

Assay [4] has as its target T4, hPTH1R (Homo sapiens, UniProt Q03431).
T4 construct: expressed in transfected cells; host or cells: COS-1 cells (ATCC), transient, DEAE-dextran
T4 sequence (Q03431 27-593): T1 sequence (Q03431 27-593)
As to the kind of experiment: cAMP accumulation dose-response assay in COS cells. It is filed as cell-based. (In general: Cyclic AMP is a second messenger, typically raised through Gs and lowered through Gi signalling.)
Method: COS cells transiently expressing PTH1R were stimulated with the indicated peptides for 30 min at 37° C. after which the cells were lysed and cAMP content was assessed. […] The cells were stimulated with the indicated peptide for 10 min at room temperature, the ligand was washed out, and cAMP accumulation was assessed at the indicated times after wash out. The results are the average of duplicate samples and are normalized to the level of cAMP induced during the initial stimulation.
cAMP assays. COS-1 cells obtained from American Type Culture Collection (Manassas, Va.) were cultured in Dulbecco's modified Eagle's medium supplemented with 10% fetal bovine serum in a 37° C./5% CO2 incubator. 500,000 cells were seeded in a 10 cm dish and transfected the following morning by the DEAE-dextran method with 3 μg pcDNA3.1 vector encoding hPTH1R. Approximately 40,000 transfected cells were seeded in each well of a 96-well plate 24 hr post-transfection. 48 hrs post-transfection the cells were washed twice with PBS, pH 7.4 and stimulated with peptide. […] The reactions were stopped with cold 6% perchloric acid and the cell lysates were neutralized with KHCO3. cAMP was measured with a LANCE cAMP kit (Perkin-Elmer) according to the manufacturer's instructions. […]

The target of assay [5] is T5, PTH1R ECD (Homo sapiens, UniProt Q03431).
T5 sequence (Q03431 27-186 limits assumed): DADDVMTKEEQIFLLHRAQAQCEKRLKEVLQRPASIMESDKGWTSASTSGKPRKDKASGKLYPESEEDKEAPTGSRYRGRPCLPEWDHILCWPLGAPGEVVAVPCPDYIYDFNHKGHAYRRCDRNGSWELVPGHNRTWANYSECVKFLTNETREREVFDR
Particulars: previous work (27); cited from earlier work.

Assay [6] has as its target T2, G protein-coupled receptor (RG) conformation of PTH1R. As to conditions: in words, reference (26); cited from earlier work.
Assay [7] concerns the target T1, G protein-uncoupled receptor (R0) conformation of PTH1R. Particulars: in words, reference (26); cited from earlier work.
The mark [8] stands for this setting: read-out: IC50 Log M RG (converted).

Read-outs that look alike come from different tables or passages of the source. Where no end group is shown, it is not given here.

As a reminder, the IC50 is the concentration needed to halve the response being measured. As to “SVSEIQLMHNLGKHLNSMERVEFLRKKIQDVHNF-NH2 [W23F/L28I]”, in assay [1], the RO/RG came to 190. Further, the IC50 in assay [2] (read-out: IC50 (nM) RG) is 0.2 nM.
As to “SVSEIQLMHNLGKHLNSMERVEFLRKKLQDIHNF-NH2 [W23F/V31I]”, the “ECD-binding (ability to compete biotin-PTH / MBP-PTH1R-ECD interaction)” value in assay [3] was “poor ECD-binding”. Moreover, in assay [1], the “R0 affinity compared to wild-type” value is listed as “dramatically reduced R0 affinity” and the RO/RG was found to be 386. Besides, the “maximal cAMP levels relative to those obtained with the wt peptides” value in assay [4] (COS cells transiently expressing PTH1R) is around 80%. Further, the “potency of cAMP response compared to wt peptides” value in assay [4] (in words) is recorded as “essentially the same as the wt peptides”. For the same molecule, the “RG affinity compared to wild-type” value in assay [2] (in words) is listed as “normal RG affinity”.
On to `CC[C@H](C)[C@H](NC(=O)[C@H](CC(C)C)NC(=O)[C@H](Cc1c[nH]cn1)NC(=O)[C@H](Cc1c[nH]cn1)NC(=O)[C@H](CC(C)C)NC(=O)[C@H](Cc1ccccc1)NC(=O)[C@H](Cc1ccccc1)NC(=O)[C@H](CCCNC(=N)N)NC(=O)[C@H](CCCNC(=N)N)NC(=O)[C@H](CCCNC(=N)N)NC(=O)[C@H](CC(C)C)NC(=O)[C@H](CC(=O)O)NC(=O)[C@H](CCC(N)=O)NC(=O)[C@@H](NC(=O)[C@H](CO)NC(=O)[C@H](CCCCN)NC(=O)CN)[C@@H](C)CC)C(=O)N[C@@H](C)C(=O)N[C@@H](CCC(=O)O)C(=O)N[C@H](C(=O)N[C@@H](Cc1c[nH]cn1)C(=O)N[C@H](C(=O)N[C@@H](C)C(=O)O)[C@@H](C)O)[C@@H](C)CC` [PTHrP(12-34)OH, reference compound], for which the IC50 in assay [3] is around 2000 nM.
Take “GKHLNSMERVEWLRKKLQDVHNF-NH2 [PTH(12-34)NH2, reference compound]”: in assay [3], the IC50 is around 1000 nM.
Regarding “SVSEIQLMHNLGKHLNSMERVEWLRKLLQDIHNF-NH2 [K27L/V31I]”, the RO/RG in assay [1] was found to be 36.8. For the same molecule, the IC50 in assay [2] (setting [8]) is 0.501 nM.
One may read the Kd as the free concentration of one partner at which half of the binding sites on the other are occupied at equilibrium, for simple one-to-one binding. Consider “PTH(15-34)NH2: C-terminally amidated 15-34 fragment of PTH (LNSMERVEWLRKKLQDVHNF-NH2)”, for which the Kd in assay [5] is around 1000 nM.
As to “SVSEIQLMHNLGKHLNSMERVEFLRKLIQDIHNF-NH2 [W23F/K27L/L28I/V31I]”, the RO/RG in assay [1] is recorded as 68. Moreover, the IC50 in assay [2] (setting [8]) was 0.631 nM.
Turning to `CC[C@H](C)[C@H](NC(=O)[C@H](CC(C)C)NC(=O)[C@H](CCCCN)NC(=O)[C@H](CCCNC(=N)N)NC(=O)[C@H](CC(C)C)NC(=O)[C@H](Cc1c[nH]c2ccccc12)NC(=O)[C@H](CCC(=O)O)NC(=O)[C@@H](NC(=O)[C@H](CCCNC(=N)N)NC(=O)[C@H](CCC(=O)O)NC(=O)[C@H](CCSC)NC(=O)[C@H](CO)NC(=O)[C@H](CC(N)=O)NC(=O)[C@H](CC(C)C)NC(=O)[C@H](Cc1c[nH]cn1)NC(=O)[C@H](CCCCN)NC(=O)CNC(=O)[C@H](CC(C)C)NC(=O)[C@H](CC(N)=O)NC(=O)[C@H](Cc1c[nH]cn1)NC(=O)[C@H](CCSC)NC(=O)[C@H](CC(C)C)NC(=O)[C@H](CCC(N)=O)NC(=O)[C@@H](NC(=O)[C@H](CCC(=O)O)NC(=O)[C@H](CO)NC(=O)[C@@H](NC(=O)[C@@H](N)CO)C(C)C)[C@@H](C)CC)C(C)C)C(=O)N[C@@H](CCC(N)=O)C(=O)N[C@@H](CC(=O)O)C(=O)N[C@H](C(=O)N[C@@H](Cc1c[nH]cn1)C(=O)N[C@@H](CC(N)=O)C(=O)N[C@@H](Cc1ccccc1)C(N)=O)C(C)C` [K27L/L28I], the IC50 in assay [2] (setting [8]) was 0.316 nM.
As for “SVSEIQLMHNLGKHLNSMERVEWLRKKIQDIHNF-NH2 [L28I/V31I]”, the RO/RG in assay [1] is listed as 135. The IC50 in assay [2] (read-out: IC50 (nM) RG) is 0.31 nM; in assay [2] (setting [8]) it was 0.251 nM.
Regarding “SVSEIQLMHNLGKHLNSMERVEWLRKLLQDVHNF-NH2 [K27L]”, in assay [1], the RO/RG came to 11.9.
“SVSEIQLMHNLGKHLNSMERVEFLRKLLQDVHNF-NH2 [W23F/K27L]”: the RO/RG in assay [1] was 26.4. Besides, the IC50 in assay [2] (setting [8]) is 0.251 nM.
As for “quadruply mutant PTHrP peptide: PTHrP(12-34)NH2 scaffold with swaps at all four positions 23′, 27′, 28′, 31′ (GKSIQDLRRRFWLHHKLAEVHTA-NH2)”, the “ECD-binding (ability to compete biotin-PTH / MBP-PTH1R-ECD interaction)” value in assay [3] is on record as “normal binding to the ECD”.
For “AVSEHQLLHDKGKSIQDLRRRFWLHHKLAEVHTA-NH2 [F23W/L27K/I28L/I31V]”, in assay [1], the “R0 affinity compared to wild-type” value is given as “slightly decreased R0 affinity” and the RO/RG is recorded as 586. Besides, the IC50 in assay [2] (setting [8]) is 0.0794 nM.
As for “PTH(1-28): PTH fragment 1-28, literature peptide (26) (SVSEIQLMHNLGKHLNSMERVEWLRKKL; Parathyroid hormone; UniProt P01270 32-59, looked up, fragment)”, in assay [6], the “RG affinity compared to PTH(1-34)” value is “diminished RG affinity”. Also, the “RG-selectivity compared to PTH(1-34)” value in assay [7] is “more RG-selective”.
As to “SVSEIQLMHNLGKHLNSMERVEWLRKKIQDVHNF-NH2 [L28I]”, the IC50 in assay [1] (n = 3, GTPγS to uncouple receptor and G protein, read-out: IC50 Log M RO (converted)) is 3.98 nM; in assay [2] (read-out: IC50 (nM) RG), 0.1 nM. Moreover, in assay [1], the RO/RG came to 45.
“SVSEIQLMHNLGKHLNSMERVEFLRKKLQDVHNF-NH2 [W23F]”: the RO/RG in assay [1] amounted to 59. Also, the IC50 in assay [2] (setting [8]) was 0.2 nM.
As for “SVSEIQLMHNLGKHLNSMERVEWLRKKLQDIHNF-NH2 [V31I]”, in assay [1], the RO/RG amounted to 110. Moreover, the results for the IC50 in assay [2] (read-out: IC50 (nM) RG) and in assay [2] (setting [8]) were 0.31 nM and 0.251 nM, respectively.
